Legend:
B-RAF G466V = molecular target: T1, B-RAF G466V (Homo sapiens, UniProt P15056, G466V); experiment: Target protein degradation, assay D: T-Rex 293 cells, HA-BRAF_G466V, 384 well format; type: cell-based; settings: T-Rex 293 HA-BRAF_G466V cells, 24 hours, Examples 83-269; for DC50: Assay D; for Dmax: T-REx-293, Assay D
T1 construct: expressed in transfected cells; host or cells: T-Rex 293 cells (Invitrogen #R71007)
How it was run: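 T-Rex 293 cells stably expressing doxycycline-induced (1 ng/mL) HA-BRAF G466V treated 24 h at 37 °C with PROTACs, 11-point 1:3 dilution, 300 nM to 5 pM final, 0.5% DMSO. Fixed cells immunostained for HA and imaged by high-content microscopy; DC50 and Dmax (% of control) derived, toxicity from nuclei counts versus DMSO.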

B-RAF V600E = molecular target: T2, B-RAF V600E (Homo sapiens, UniProt P15056, V600E); experiment: Target protein degradation, assay C: T-Rex 293 cells, HA-BRAF_V600E, 384 well format; type: cell-based; settings: T-Rex 293 HA-BRAF_V600E cells, 24 hours, Examples 83-269; for DC50: Assay C; for Dmax: T-REx-293, Assay C
T2 construct: expressed in transfected cells; host or cells: T-Rex 293 cells (Invitrogen #R71007)
How it was run: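 T-Rex 293 cells stably expressing doxycycline-induced (1 ng/mL) HA-BRAF V600E were treated 24 h at 37 °C with compound (300 nM–5 pM, 11 points, 0.5% DMSO). HA immunofluorescence was quantified by high-content imaging to give DC50 and Dmax (% of control); nuclei counts versus DMSO gauged toxicity.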

T1 sequence (P15056 whole entry G466V): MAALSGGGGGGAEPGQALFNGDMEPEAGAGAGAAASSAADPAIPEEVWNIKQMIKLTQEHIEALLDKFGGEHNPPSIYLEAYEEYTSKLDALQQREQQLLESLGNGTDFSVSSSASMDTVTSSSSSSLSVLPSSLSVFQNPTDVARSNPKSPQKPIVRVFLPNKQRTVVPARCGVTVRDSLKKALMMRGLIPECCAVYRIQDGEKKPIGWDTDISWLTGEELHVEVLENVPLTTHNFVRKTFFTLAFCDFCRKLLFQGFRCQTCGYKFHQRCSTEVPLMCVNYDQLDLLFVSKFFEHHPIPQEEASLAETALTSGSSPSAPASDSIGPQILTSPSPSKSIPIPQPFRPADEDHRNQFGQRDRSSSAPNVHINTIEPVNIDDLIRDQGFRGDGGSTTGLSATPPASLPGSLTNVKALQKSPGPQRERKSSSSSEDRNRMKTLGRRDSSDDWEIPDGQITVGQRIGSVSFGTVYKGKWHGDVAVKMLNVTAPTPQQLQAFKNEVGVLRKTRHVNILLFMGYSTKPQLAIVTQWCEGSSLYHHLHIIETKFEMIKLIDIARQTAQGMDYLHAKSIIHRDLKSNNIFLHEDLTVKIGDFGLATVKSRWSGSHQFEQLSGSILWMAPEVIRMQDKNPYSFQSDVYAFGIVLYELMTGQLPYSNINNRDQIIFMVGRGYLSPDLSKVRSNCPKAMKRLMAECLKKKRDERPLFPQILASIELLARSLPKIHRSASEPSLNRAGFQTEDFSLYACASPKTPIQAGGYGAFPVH
T2 sequence (P15056 whole entry V600E): as the sequence (P15056 whole entry G466V) above, with V466G, V600E counted along it

## N#Cc1c(NS(=O)(=O)N2CC[C@@H](F)C2)ccc(F)c1Oc1ccc2ncn(-c3ccc(N4CCC(CN5CCC(c6ccc([C@@H]7CCC(=O)NC7=O)cc6F)CC5)CC4)cc3)c(=O)c2c1 [Example 188, (3R)-N-(2-cyano-3-{[3-(4-{4-[(4-{4-[(3S)-2,6-dioxopiperidin-3-yl]-2-fluorophenyl}piperidin-1-yl)methyl]piperidin-1-yl}phenyl)-4-oxo-3,4-dihydroquinazolin-6-yl]oxy}-4-fluorophenyl)-3-fluoropyrrolidine-1-sulfonamide]
B-RAF G466V
  DC50: 1 to 10 nM
  Dmax: 35 to 70%
B-RAF V600E
  DC50: 50 to 500 nM
  Dmax: 35 to 70%

## N#Cc1c(NS(=O)(=O)N2CC[C@@H](F)C2)ccc(F)c1Oc1ccc2ncn(-c3ccc(N4CCC(CN5CCC(Oc6cccc7c6C(=O)N(C6CCC(=O)NC6=O)C7=O)CC5)CC4)nc3)c(=O)c2c1 (stereo partly drawn) [Example 137, (3R)-N-(2-cyano-3-{[3-(6-{4-[(4-{[2-(2,6-dioxopiperidin-3-yl)-1,3-dioxo-2,3-dihydro-1H-isoindol-4-yl]oxy}piperidin-1-yl)methyl]piperidin-1-yl}pyridin-3-yl)-4-oxo-3,4-dihydroquinazolin-6-yl]oxy}-4-fluorophenyl)-3-fluoropyrrolidine-1-sulfonamide]
B-RAF G466V
  DC50: > 30 nM
  Dmax: ≤ 35%
B-RAF V600E
  DC50: > 500 nM

## N#Cc1c(NS(=O)(=O)N2CC[C@@H](F)C2)ccc(F)c1Oc1ccc2ncn(-c3ccc(N4CCC(CN5CCC(c6ccc([C@H]7CCC(=O)NC7=O)cc6F)CC5)CC4)cc3)c(=O)c2c1 [Example 187, (3R)-N-(2-cyano-3-{[3-(4-{4-[(4-{4-[(3R)-2,6-dioxopiperidin-3-yl]-2-fluorophenyl}piperidin-1-yl)methyl]piperidin-1-yl}phenyl)-4-oxo-3,4-dihydroquinazolin-6-yl]oxy}-4-fluorophenyl)-3-fluoropyrrolidine-1-sulfonamide]
B-RAF G466V
  DC50: 1 to 10 nM
  Dmax: ≤ 35%
B-RAF V600E
  DC50: 50 to 500 nM
  Dmax: ≥ 70%

## N#Cc1c(NS(=O)(=O)N2CC[C@@H](F)C2)ccc(F)c1Oc1ccc2ncn(-c3cnc(N4CCN(CCN5CCN(c6ccc7c(c6)CN(C6CCC(=O)NC6=O)C7=O)CC5)CC4)nc3)c(=O)c2c1 (stereo partly drawn) [Example 151, (3R)-N-{2-cyano-3-[(3-{2-[4-(2-{4-[2-(2,6-dioxopiperidin-3-yl)-1-oxo-2,3-dihydro-1H-isoindol-5-yl]piperazin-1-yl}ethyl)piperazin-1-yl]pyrimidin-5-yl}-4-oxo-3,4-dihydroquinazolin-6-yl)oxy]-4-fluorophenyl}-3-fluoropyrrolidine-1-sulfonamide]
B-RAF G466V
  DC50: 1 to 10 nM
  Dmax: 35 to 70%
B-RAF V600E
  DC50: 5 to 50 nM
  Dmax: 35 to 70%

## N#Cc1c(NS(=O)(=O)N2CC[C@@H](F)C2)ccc(F)c1Oc1ccc2ncn(-c3ccc(C4CCN(CC5CC6(CCN(c7ccc8c(c7)CN([C@H]7CCC(=O)NC7=O)C8=O)CC6)C5)C4)cc3)c(=O)c2c1 (stereo partly drawn) [Example 263, (3R)-N-(2-cyano-3-{[3-(4-{1-[(7-{2-[(3S)-2,6-dioxopiperidin-3-yl]-1-oxo-2,3-dihydro-1H-isoindol-5-yl}-7-azaspiro[3.5]nonan-2-yl)methyl]pyrrolidin-3-yl}phenyl)-4-oxo-3,4-dihydroquinazolin-6-yl]oxy}-4-fluorophenyl)-3-fluoropyrrolidine-1-sulfonamide]
B-RAF G466V
  DC50: 1 to 10 nM
  Dmax: ≥ 70%
B-RAF V600E
  DC50: 50 to 500 nM
  Dmax: ≥ 70%

## N#Cc1c(NS(=O)(=O)N2CC[C@@H](F)C2)ccc(F)c1Oc1ccc2ncn(-c3ccc(N4CCC(CN5CC(c6ccc7c(c6)CN(C6CCC(=O)NC6=O)C7=O)C5)CC4)cc3)c(=O)c2c1 (stereo partly drawn) [Example 101, (3R)-N-{2-cyano-3-[(3-{4-[4-({3-[2-(2,6-dioxopiperidin-3-yl)-1-oxo-2,3-dihydro-1H-isoindol-5-yl]azetidin-1-yl}methyl)piperidin-1-yl]phenyl}-4-oxo-3,4-dihydroquinazolin-6-yl)oxy]-4-fluorophenyl}-3-fluoropyrrolidine-1-sulfonamide]
B-RAF G466V
  DC50: 1 to 10 nM
  Dmax: 35 to 70%
B-RAF V600E
  DC50: 50 to 500 nM
  Dmax: 35 to 70%

## Cc1cc(N2CCC(CN3CCN(c4ccc(-n5cnc6ccc(Oc7c(F)ccc(NS(=O)(=O)N8CC[C@@H](F)C8)c7C#N)cc6c5=O)cc4)CC3)CC2)c(F)c2c1C(=O)N(C1CCC(=O)NC1=O)C2 (stereo partly drawn) [Example 94, (3R)-N-{2-cyano-3-[(3-(4-[4-({1-[2-(2,6-dioxopiperidin-3-yl)-4-fluoro-7-methyl-1-oxo-2,3-dihydro-1H-isoindol-5-yl]piperidin-4-yl}methyl)piperazin-1-yl]phenyl}-4-oxo-3,4-dihydroquinazolin-6-yl)oxy]-4-fluorophenyl}-3-fluoropyrrolidine-1-sulfonamide]
B-RAF G466V
  DC50: 1 to 10 nM
  Dmax: ≤ 35%
B-RAF V600E
  DC50: 5 to 50 nM
  Dmax: 35 to 70%

## N#Cc1c(NS(=O)(=O)N2CC[C@@H](F)C2)ccc(F)c1Oc1ccc2ncn(-c3ccc(N4CCN(c5cc(N6CCN(c7ccc8c(c7)C(=O)N(C7CCC(=O)NC7=O)C8=O)CC6)ncn5)CC4)nc3)c(=O)c2c1 (stereo partly drawn) [Example 168, (3R)-N-{2-cyano-3-[(3-(6-[4-(6-{4-[2-(2,6-dioxopiperidin-3-yl)-1,3-dioxo-2,3-dihydro-1H-isoindol-5-yl]piperazin-1-yl}pyrimidin-4-yl)piperazin-1-yl]pyridin-3-yl}-4-oxo-3,4-dihydroquinazolin-6-yl)oxy]-4-fluorophenyl}-3-fluoropyrrolidine-1-sulfonamide]
B-RAF G466V
  DC50: 10 to 30 nM
  Dmax: 35 to 70%
B-RAF V600E
  DC50: 50 to 500 nM
  Dmax: ≤ 35%

## N#Cc1c(NS(=O)(=O)N2CC[C@@H](F)C2)ccc(F)c1Oc1ccc2ncn(-c3cnc(C4(N5CCN(CC6CCN(c7ccc(NC8CCC(=O)NC8=O)cc7F)CC6)CC5)CC4)nc3)c(=O)c2c1 (stereo partly drawn) [Example 102, (3R)-N-[2-cyano-3-({3-[2-(1-{4-[(1-{4-[(2,6-dioxopiperidin-3-yl)amino]-2-fluorophenyl}piperidin-4-yl)methyl]piperazin-1-yl}cyclopropyl)pyrimidin-5-yl]-4-oxo-3,4-dihydroquinazolin-6-yl}oxy)-4-fluorophenyl]-3-fluoropyrrolidine-1-sulfonamide]
B-RAF G466V
  DC50: > 30 nM
B-RAF V600E
  DC50: 50 to 500 nM
  Dmax: 35 to 70%

## N#Cc1c(NS(=O)(=O)N2CC[C@@H](F)C2)ccc(F)c1Oc1ccc2ncn(-c3ccc(C4CCN(CC5CCN(c6ccc7c(c6)CN([C@H]6CCC(=O)NC6=O)C7=O)CC5)C4)cc3)c(=O)c2c1 (stereo partly drawn) [Example 208, (3R)-N-(2-cyano-3-{[3-(4-{1-[(1-{2-[(3S)-2,6-dioxopiperidin-3-yl]-1-oxo-2,3-dihydro-1H-isoindol-5-yl}piperidin-4-yl)methyl]pyrrolidin-3-yl}phenyl)-4-oxo-3,4-dihydroquinazolin-6-yl]oxy}-4-fluorophenyl)-3-fluoropyrrolidine-1-sulfonamide]
B-RAF G466V
  DC50: 1 to 10 nM
  Dmax: ≤ 35%
B-RAF V600E
  DC50: 5 to 50 nM
  Dmax: 35 to 70%

## CC(=O)N(CC1CCN(c2ccc(-n3cnc4ccc(Oc5c(F)ccc(NS(=O)(=O)N6CC[C@@H](F)C6)c5C#N)cc4c3=O)cc2)CC1)[C@H]1C[C@@H](Oc2ccc3c(c2)CN([C@H]2CCC(=O)NC2=O)C3=O)C1 [Example 268, N-{[1-(4-{6-[2-cyano-6-fluoro-3-({[(3R)-3-fluoropyrrolidin-1-yl]sulfonyl}amino)phenoxy]-4-oxo-3,4-dihydroquinazolin-3-yl}phenyl)piperidin-4-yl]methyl}-N-[(1r,3r)-3-({2-[(3S)-2,6-dioxopiperidin-3-yl]-1-oxo-2,3-dihydro-1H-isoindol-5-yl}oxy)cyclobutyl]acetamide]
B-RAF G466V
  DC50: 10 to 30 nM
  Dmax: ≤ 35%
B-RAF V600E
  DC50: > 500 nM

## N#Cc1c(NS(=O)(=O)N2CC[C@@H](F)C2)ccc(F)c1Oc1ccc2ncn(-c3ccc(NC4CCN(c5ccc6c(c5)C(=O)N(C5CCC(=O)NC5=O)C6=O)CC4)nc3)c(=O)c2c1 (stereo partly drawn) [Example 157, (3R)-N-[2-cyano-3-({3-[6-({1-[2-(2,6-dioxopiperidin-3-yl)-1,3-dioxo-2,3-dihydro-1H-isoindol-5-yl]piperidin-4-yl}amino)pyridin-3-yl]-4-oxo-3,4-dihydroquinazolin-6-yl}oxy)-4-fluorophenyl]-3-fluoropyrrolidine-1-sulfonamide]
B-RAF G466V
  DC50: > 30 nM
B-RAF V600E
  DC50: 50 to 500 nM
  Dmax: 35 to 70%

## N#Cc1c(NS(=O)(=O)N2CC[C@@H](F)C2)ccc(F)c1Oc1ccc2ncn(-c3cnc(N4CCC(CN5CC6(C5)CN(c5cccc7c5C(=O)N(C5CCC(=O)NC5=O)C7=O)C6)CC4)nc3)c(=O)c2c1 (stereo partly drawn) [Example 153, (3R)-N-{2-cyano-3-[(3-{2-[4-({6-[2-(2,6-dioxopiperidin-3-yl)-1,3-dioxo-2,3-dihydro-1H-isoindol-4-yl]-2,6-diazaspiro[3.3]heptan-2-yl}methyl)piperidin-1-yl]pyrimidin-5-yl}-4-oxo-3,4-dihydroquinazolin-6-yl)oxy]-4-fluorophenyl}-3-fluoropyrrolidine-1-sulfonamide]
B-RAF G466V
  DC50: > 30 nM
B-RAF V600E
  DC50: 50 to 500 nM
  Dmax: 35 to 70%
